According to patent US6303621A, “Method for treating cancers using a diiodo thyronine analogue having no significant hormonal activity and a vinca alkaloid and compositions comprising the same” (priority 1999, dated 2001):
Entries after “also recorded” stand apart in the source; their conditions may differ.

Assays:
[1] = tested on: Ras and apoptosis-regulating kineses (ASK1), pathways; settings: Wang et al.; cited from earlier work
[2] = tested on: malignant tumor growth; test: Activity of DIME in vivo (general statement)
[3] = tested on: human cancer cells; test: Cytostatic / cytocidal activity of DIME analogues on human cancer cells; assay type: cell-based
Excerpt: Such tests may also screen for the ability of a particular compound to inhibit malignant tumor cell growth in vitro or in vivo or abolish tumorigenicity of malignant cells.
As will be appreciated by the skilled artisan, many varieties of malignant tumor cell cultures and cell lines may be used to screen for activity, including but not limited to HL-60, HT-144, E-ras-20, DU-145, MDA-168, MCF-7, 855-2 and MDA-MB-231. Of course, other in vitro and/or in vivo assays as will be apparent to the skilled artisan to screen for anti-tumor and/or anti-cancer activity may also be employed to identify effective diiodo thyronine analogues useful in the present invention.

[4] = tested on: human cancer cells; settings: studies set forth in U.S. Ser. Nos. 08/655,267 and 08/833,272; cited from earlier work
[5] = tested on: non-malignant mouse pituitary adenoma; settings: in vivo; cited from earlier work
[6] = tested on: tadpole metamorphosis; settings: in vivo; cited from earlier work
[7] = tested on: thyroid; settings: rat, in vivo; cited from earlier work
[8] = tested on: metaphase arrest in cancer cells; test: Metaphase block (mitotic block); assay type: cell-based; settings: FIG. 7
Excerpt: Metaphase was quantitated as reported by Mendeleyev et al., International Journal of Oncology 10:689-695 (1997).
Since vincristine and vinblastine were equivalent here we illustrate only DIME-vinblastine interaction on mitotic block.

[9] = tested on: MDA-MB-231 human mammary cancer cells; test: Cell growth kinetics, median effect and isobologram; assay type: cell-based; settings: 0.75 μM DIME (or DIPE) or 1-2 nM vincristine alone
Description: (§1) c. MDA-MB-231 human mammary cancer cells were cultured and treated as reported previously by Mendeleyev et al., International Journal of Oncology 10:689-695 (1997) and Zhen et al., International Journal of Oncology 10:689-695 (1997). For the assay of cell growth kinetics cells, were seeded into 2cm^2 wells (24-well plates) at a density of 8×10^3 /cm^2 at the time of seeding. Vincristine (or vinblastine) and DIME (or DIPE) were added from DMSO dilutions (1-2 μl/ 500 μl culture mediim) either from separate drug solutions or for the construction of median effect plot (FIG. 1) from a pre-made mixture of both drugs (e.g. 0.75 μM DIME+2 nM vincristine) and simultaneous dilutions thereof (Chou et al. Eur. J. Biochem. 115: 207-216 (1981)). The cultures were incubated at 37° C. for 4 days and growth rates, leading to near confluency in drug-free controls, were monitored by cell counting in a haemocytometer after detachment by trypsin treatment Mendeleyev et al., International Journal of Oncology 10:689-695 (1997) and Zhen et al., International Journal of Oncology 10:689-695 (1997). Mathematical analysis of growth curves and median effects and isobolograms were carried out by published procedures (Chou et al. J. Theor. Biol. 65: 345-356 (1977), Chou et al. Eur. J. Biochem. 115: 207-216 (1981) and Chou et al. Adv. in Enzyme Regulation 22:27-55 (1984)) and error bars indicate SD=Σx^2 +L -(Σx)^2 /n where X is the numerical results with n=3-5.
Kinetics of vincristine-DIME interactions: Interpretation of conventional isobolograms, consisting of plots of I50 values of two drugs alone and in combination is valid only if it is proven kinetically that both drugs bind at mutually exclusive sites.
Isobologram analysis of the combined action of DIME and vincristine is illustrated in FIG. 2, and it is evident that the action of the two drugs in combination exceed an additive effect, which is depicted by a concave curve, contrasting with additive action, which would display a straight line connecting the I50 values for each drug alone (dotted line in FIG. 2). […]

[10] = tested on: caspase 3; test: Caspase 3 assay in drug-treated cells; assay type: cell-based, human; settings: 0.75 μM DIME or 2 nM vincristine alone, 3 days
Description: g. Caspase 3 assay. MDA 231 cells were grown for 3 days in the absence of drugs (control) or in the presence of 0.75 μM DIME, or in the presence of 2 nM vincristine, or in the presence of both drugs. After harvesting and washing the cells with PBS, they were lysed in a lysis buffer (10 mM HEPES, 5 mM DTT, 2 mM EDTA, 1 mM PMSF, 0.1% CHAPS, 20 μg/ml each of aprotinin, leupeptin, pepstatin, pH 7.4), and were frozen and thawed 3 times. […] Each cell extract was incubated at room temperature with and without preincubation with the caspase inactivator DEVD-CMK. The difference of fluorescence was plotted against time. The fluorescence was calibrated with the fluorophore AFC.

[11] = tested on: leukemias; settings: in vivo; cited from earlier work
[12] = tested on: caspase 3; test: Caspase 3 in cell-free extracts treated with drugs; assay type: biochemical; settings: results not shown
[13] = tested on: microtubules; test: Microtubule binding
[14] = tested on: esterase activity in certain tumor cells; test: Stability to hydrolysis (esterase); settings: versus DIME
[15] = tested on: MDA-MB-231 human mammary cancer cells; test: Colony formation (cell killing); assay type: cell-based; settings: FIG. 4a
Description: as §1
e. Colony formation was quantitated as reported by. Each colony of 50 cells is the outgrowth from one cell, plated 10 days before colony counting.

[16] = tested on: tubulin α+β; test: Inhibition of tubulin polymerization / assembly of microtubules; assay type: biochemical; settings: FIG. 4b
Description: The optical tests were performed as reported by Buki et al., International Journal of Oncology 10:911-913 (1997).

[17] = vindesine versus vincristine; cited from earlier work

For `CC(=O)O[C@H]1C(=O)[C@@]2(C)[C@H]([C@H](OC(=O)c3ccccc3)[C@]3(O)C[C@H](OC(=O)[C@H](O)[C@@H](NC(=O)c4ccccc4)c4ccccc4)C(C)=C1C3(C)C)[C@]1(OC(C)=O)CO[C@@H]1C[C@@H]2O` [taxol], the “Activation of Ras and ASK1 pathways” value [1] is given as “can activate both Ras and apoptosis-regulating kineses (ASK1), pathways”.

In the case of `CCOC(=O)c1cc(I)c(Oc2ccc(OC)cc2)c(I)c1` [Compound 5, Ethyl 3,5-diiodo-4-(4'-methoxyphenoxy)benzoate], the Activity in vivo [2] is reported as “completely inactive” and the “Cytostatic and cytocidal activity in cellular assays” value [3] is reported as “completely inactive”.

In the case of `COC(=O)c1cc(I)c(Oc2ccc(OC)cc2Cl)c(I)c1` [Compound 14, Methyl 3,5-diiodo-4-(2'-chloro-4'-methoxyphenoxy)benzoate], the “maximal inhibitory action on the growth of human cancer cells as compared to DIME” value [4] is listed as “about 25%”.

In the case of `NC(Cc1cc(I)c(Oc2cc(I)c(O)c(I)c2)c(I)c1)C(=O)O` (stereo not shown) [thyroxine, reference compound], the “Growth of non-malignant mouse pituitary tumor” value [5] is listed as “depress growth”, the “Metabolic or cell differentiating activity (tadpole metamorphosis)” value [6] is listed as “induces cell differentiation” and the “Uptake of iodine by the thyroid” value [7] is listed as “suppresses uptake of iodine by the thyroid”.

For `CC[C@]1(O)C[C@@H]2CN(CCc3c([nH]c4ccccc34)[C@@](C(=O)OC)(c3cc4c(cc3OC)N(C)[C@H]3[C@@](O)(C(=O)OC)[C@H](OC(C)=O)[C@]5(CC)C=CCN6CC[C@]43[C@@H]65)C2)C1` [vinblastine], the “Combined action with DIME on metaphase arrest, vincristine versus vinblastine” value [8] was “equivalent”.

In the case of `CC[C@]1(O)C[C@H]2CN(CCc3c([nH]c4ccccc34)[C@@](C(=O)OC)(c3cc4c(cc3OC)N(C=O)[C@H]3[C@@](O)(C(=O)OC)[C@H](OC(C)=O)[C@]5(CC)C=CCN6CC[C@]43[C@@H]65)C2)C1` [vincristine, reference compound], the “Growth rate with single drug” value [9] is listed as “do not elicit effects that exceed the SD of average cell growth rates; also recorded: fall within SD values”, the “Activation of caspase 3, single drug” value [10] is listed as “small rate of caspase 3 activity” and the Activity in leukemias [11] is listed as “most active and useful agent in the treatment of leukemias”. The “Combined action with DIME on metaphase arrest, vincristine versus vinblastine” value [8] was “equivalent” and the “Caspase 3 increase in cell-free extracts” value [12] was “do not show an increase in caspase 3”.

With `COc1ccc(Oc2c(I)cc(C(C)=O)cc2I)cc1` [DIPE, 1-[3,5-diiodo-4-(4'-methoxyphenoxy)-phenyl]-ethanone] the “Growth rate with single drug” value [9] was “do not elicit effects that exceed the SD of average cell growth rates”, the Binding to microtubules [13] was “bind to microtubules” and the Stability to hydrolysis [14] was “non-hydrolyzable”. The “Inhibition of colony formation, DIME versus DIPE” value [15] was “equivalency; also recorded: Equivalent effectivity” and the “Inhibition of assembly of microtubules, DIME versus DIPE” value [16] was “equivalency; also recorded: Inhibitory effects”.

With `CCCOc1ccc(Oc2c(I)cc(C(=O)OC)cc2I)cc1` [Compound 3] the Activity in vivo [2] was “completely inactive” and the “Cytostatic and cytocidal activity in cellular assays” value [3] was “completely inactive”.

For `CC[C@]1(O)C[C@@H]2CN(CCc3c([nH]c4ccccc34)[C@@](C(=O)OC)(c3cc4c(cc3OC)N(C)[C@H]3[C@@](O)(C(N)=O)[C@H](O)[C@]5(CC)C=CCN6CC[C@]43[C@@H]65)C2)C1` [vindesine, 4-desacetyl vinblastine C-3 carboxamide], the Activity in leukemias [11] is listed as “active in certain leukemias” and the Neurotoxicity in humans [17] is listed as “less neurotoxicity than does vincristine”.
